From US12551436B2, “Dosing regimens for treatment of proliferative disorders” (priority 2018, dated 2026)
“And” between values parts separate entries of the source, which are not always exact repeats. Identical values can stand only once. Like-named read-outs stand apart in the source and are kept apart here.

Assay: Pharmacokinetics of curcumin and THC in plasma during and after liposomal curcumin infusion
Assay type: in vivo, human
Conditions: for AUC(0-t): read-out: AUC0-Tlast
Description: Patient #21 was excluded from the PK analysis because the infusion was interrupted for 1.5 h.
Pharmacokinetic assessments. […] Samples for infusion #1 were collected at baseline (BL), 2 h after start of infusion and after end of infusion at 0 min=EOI, 10 min, 20 min, 30 min, 45 min, 60 min and 120 min and at EOI for infusions #2, #3, #5 and #8. […] The number of blood collections remained unchanged.

[1] = plasma THC, first liposomal curcumin infusion, DL 3: 150 mg/m^2, 8 h infusion, patient 17
[2] = plasma THC, first liposomal curcumin infusion, DL 4: 190 mg/m^2, 8 h infusion, Mean, patient #19 not included
[3] = plasma THC, first liposomal curcumin infusion, DL 4: 190 mg/m^2, 8 h infusion, individual patients
[4] = plasma THC, first liposomal curcumin infusion, DL 6: 300 mg/m^2, 8 h infusion, Mean
[5] = plasma THC, first liposomal curcumin infusion, DL 6a: 300 mg/m^2, 6 h infusion, Mean
[6] = plasma THC, first liposomal curcumin infusion, DL 6a: 300 mg/m^2, 6 h infusion, individual patients

In the case of `COc1cc(/C=C/C(=O)CC(=O)/C=C/c2ccc(O)c(OC)c2)ccc1O` [Curcumin, (1E6E)-1,7-bis(4 hydroxy-3-methoxyphenyl)-1,6-heptadiene-3,5 dione], the Cmax (human, in vivo, 240 mg/m^2, plasma curcumin, first liposomal curcumin infusion, DL 5: 240 mg/m^2 8 h infusion, Mean, read-out: Cmax) is reported as 647 ng/mL and the Tmax (human, in vivo, mean Tmax for curcumin) is reported as 3.6 to 4 h.
With `COc1cc(CCC(=O)CC(=O)CCc2ccc(O)c(OC)c2)ccc1O` [tetrahydrocurcumin] the plasma samples (DL 1-DL 3 (100 to 150 mg/m^2), patients with only one blood collection during infusion, most samples) was “below the limit of quantification”, the AUC(0-t) (human, in vivo, 150 mg/m^2, plasma THC, first liposomal curcumin infusion, DL 3: 150 mg/m^2, 8 h infusion, patient 17) was 59 ng·h/mL and the Cmax (human, in vivo, 150 mg/m^2, plasma THC, first liposomal curcumin infusion, DL 3: 150 mg/m^2, 8 h infusion, patient 17, read-out: Cmax) was 16.1 ng/mL. For the same compound, the Tmax (human, in vivo, 150 mg/m^2, plasma THC, first liposomal curcumin infusion, DL 3: 150 mg/m^2, 8 h infusion, patient 17, read-out: Tmax) was 4 h, the AUC(0-t) (human, in vivo, 190 mg/m^2, plasma THC, first liposomal curcumin infusion, DL 4: 190 mg/m^2, 8 h infusion, Mean, patient #19 not included) was 27 ng·h/mL and the Cmax (human, in vivo, 190 mg/m^2, plasma THC, first liposomal curcumin infusion, DL 4: 190 mg/m^2, 8 h infusion, Mean, patient #19 not included, read-out: Cmax) was 7.2 ng/mL. It also gave a Tmax (human, in vivo, 190 mg/m^2, plasma THC, first liposomal curcumin infusion, DL 4: 190 mg/m^2, 8 h infusion, Mean, patient #19 not included, read-out: Tmax) of 5 h, an AUC(0-t) (human, in vivo, 300 mg/m^2, plasma THC, first liposomal curcumin infusion, DL 6: 300 mg/m^2, 8 h infusion, Mean) of 344 ng·h/mL and a Cmax (human, in vivo, 300 mg/m^2, plasma THC, first liposomal curcumin infusion, DL 6: 300 mg/m^2, 8 h infusion, Mean, read-out: Cmax) of 74.4 ng/mL. It also gave a Tmax (human, in vivo, 300 mg/m^2, plasma THC, first liposomal curcumin infusion, DL 6: 300 mg/m^2, 8 h infusion, Mean, read-out: Tmax) of 2.5 h, an AUC(0-t) (human, in vivo, 300 mg/m^2, plasma THC, first liposomal curcumin infusion, DL 6a: 300 mg/m^2, 6 h infusion, Mean) of 326 ng·h/mL and a Cmax (human, in vivo, 300 mg/m^2, plasma THC, first liposomal curcumin infusion, DL 6a: 300 mg/m^2, 6 h infusion, Mean, read-out: Cmax) of 70.3 ng/mL. For the same compound, the Tmax (human, in vivo, 300 mg/m^2, plasma THC, first liposomal curcumin infusion, DL 6a: 300 mg/m^2, 6 h infusion, Mean, read-out: Tmax) was 3.7 h, the “AUC0-TLast of THC as percentage of curcumin” value (mean across individual patients) was 8.5% and the Clast [1] was 10.3 ng/mL. The Tlast [1] was 6.0 h, the Clast [2] was 7.2 ng/mL and the Tlast [2] was 5.0 h. The AUC0-Tlast [3] was 22 ng·h/mL and 1656 ng·h/mL and 31 ng·h/mL, the Clast [3] was 7.7 ng/mL and 11.8 ng/mL and 6.6 ng/mL and the Cmax [3] was 7.7 ng/mL and 396.1 ng/mL and 6.6 ng/mL. For the same compound, the Tlast [3] was 4.0 h and 8.8 h and 6.0 h, the Tmax [3] was 8.1 h and 6.0 h and the Clast [4] was 21.8 ng/mL. For the same compound, the Tlast [4] was 7.7 h, the Clast [5] was 6.2 ng/mL and the Tlast [5] was 6.6 h. The AUC0-Tlast [6] was 497 ng·h/mL and 155 ng·h/mL and 385 ng·h/mL and 332 ng·h/mL and 321 ng·h/mL and 264 ng·h/mL, the Clast [6] was 6.9 ng/mL and 5.2 ng/mL (2×) and 6.0 ng/mL and 8.4 ng/mL and 5.7 ng/mL and the Cmax [6] was 110.4 ng/mL and 35.1 ng/mL and 80.1 ng/mL and 67.6 ng/mL and 70.7 ng/mL and 58.3 ng/mL. For the same compound, the Tlast [6] was 6.8 h (2×) and 7.3 h and 6.0 h and 6.6 h and 6.2 h, the Tmax [6] was 2.0 h and 5.9 h and 5.8 h and the “AUC0-TLast of THC as percentage of curcumin” value (range across individual patients) was 2.1%-21.8%.
